Measured values published in ChEMBL document CHEMBL5030517, “6-Halopyridylmethylidene Penicillin-Based Sulfones Efficiently Inactivate the Natural Resistance of Pseudomonas aeruginosa to β-Lactam Antibiotics” (J Med Chem, 2021).
Values after ≈ are worked out from the molar mass of the structure shown. Active and inactive are the calls of the source. The calls are words filed in the database; no cut-off is given here.

Experiments:
[1] = test system: Pseudomonas aeruginosa PAO1; experiment: Inhibition beta lactamase PDC-1 in Pseudomonas aeruginosa PAO1 assessed as maximum rate of inactivation using nitrocefin as substrate measured by 96 well microtitre plate
[2] = test system: Pseudomonas aeruginosa PAO1; experiment: Inhibition of beta-lactamase activity in Pseudomonas aeruginosa PAO1 deltaC+pUCP-(PDC-1) assessed as MIC for cefpodoxime antibacterial activity at 4 mg/L by broth microdilution method
[3] = test system: Pseudomonas aeruginosa PAO1; experiment: Inhibition of beta-lactamase activity in Pseudomonas aeruginosa PAO1 13/09-018 (ST-175) assessed as MIC for cefpodoxime antibacterial activity at 4 mg/L by broth microdilution method
[4] = test system: Pseudomonas aeruginosa PAO1; experiment: Inhibition of beta-lactamase activity in Pseudomonas aeruginosa PAO1 deltadacBdeltaampD assessed as MIC for cefpodoxime antibacterial activity at 16 mg/L by broth microdilution method
[5] = test system: Pseudomonas aeruginosa PAO1; experiment: Inhibition of beta-lactamase activity in Pseudomonas aeruginosa PAO1 PAHUAC-27(ST-22) assessed as MIC for cefpodoxime antibacterial activity at 4 mg/L by broth microdilution method
[6] = test system: Pseudomonas aeruginosa PAO1; experiment: Inhibition of beta-lactamase activity in Pseudomonas aeruginosa PAO1 deltadacBdeltadacC assessed as MIC for cefpodoxime antibacterial activity at 4 mg/L by broth microdilution method
[7] = test system: Pseudomonas aeruginosa PAO1; experiment: Inhibition of beta-lactamase activity in Pseudomonas aeruginosa PAO1 assessed as MIC for cefpodoxime antibacterial activity at 16 mg/L by broth microdilution method
[8] = test system: Pseudomonas aeruginosa PAO1; experiment: Inhibition of beta-lactamase activity in Pseudomonas aeruginosa PAO1 36/14-210 (ST-235) assessed as MIC for cefpodoxime antibacterial activity at 16 mg/L by broth microdilution method
[9] = test system: Pseudomonas aeruginosa PAO1; experiment: Inhibition of beta-lactamase activity in Pseudomonas aeruginosa PAO1 deltadacBdeltaampD assessed as MIC for cefpodoxime antibacterial activity at 4 mg/L by broth microdilution method
[10] = test system: Pseudomonas aeruginosa PAO1; experiment: Inhibition of beta-lactamase activity in Pseudomonas aeruginosa PAO1 PAHUAC-27(ST-22) assessed as MIC for cefpodoxime antibacterial activity at 16 mg/L by broth microdilution method
[11] = test system: Pseudomonas aeruginosa PAO1; experiment: Inhibition of beta-lactamase activity in Pseudomonas aeruginosa PAO1 PAHUAC-14 (ST-966) assessed as MIC for cefpodoxime antibacterial activity at 4 mg/L by broth microdilution method
[12] = test system: Pseudomonas aeruginosa PAO1; experiment: Inhibition of beta-lactamase activity in Pseudomonas aeruginosa PAO1 deltaampD assessed as MIC for cefpodoxime antibacterial activity at 4 mg/L by broth microdilution method
[13] = Inhibition beta lactamase PDC-1 in Pseudomonas aeruginosa PAO1 assessed as apparent inhibition constant using nitrocefin as substrate measured by 96 well microtitre plate; details: read-out: Ki(app)
[14] = Inhibition beta lactamase PDC-1 in Pseudomonas aeruginosa PAO1 using nitrocefin as substrate measured by 96 well microtitre plate
[15] = test system: Pseudomonas aeruginosa PAO1; experiment: Inhibition of beta-lactamase activity in Pseudomonas aeruginosa PAO1 deltadacB assessed as MIC for cefpodoxime antibacterial activity at 16 mg/L by broth microdilution method
[16] = test system: Pseudomonas aeruginosa PAO1; experiment: Inhibition of beta-lactamase activity in Pseudomonas aeruginosa PAO1 53/22-113 (ST-244) assessed as MIC for cefpodoxime antibacterial activity at 4 mg/L by broth microdilution method
[17] = test system: Pseudomonas aeruginosa PAO1; experiment: Inhibition of beta-lactamase activity in Pseudomonas aeruginosa PAO1 deltaampD assessed as MIC for cefpodoxime antibacterial activity at 16 mg/L by broth microdilution method
[18] = test system: Pseudomonas aeruginosa PAO1; experiment: Inhibition of beta-lactamase activity in Pseudomonas aeruginosa PAO1 deltadacB assessed as MIC for cefpodoxime antibacterial activity at 4 mg/L by broth microdilution method
[19] = test system: Pseudomonas aeruginosa PAO1; experiment: Inhibition of beta-lactamase activity in Pseudomonas aeruginosa PAO1 36/14-210 (ST-235) assessed as MIC for cefpodoxime antibacterial activity at 4 mg/L by broth microdilution method
[20] = test system: Pseudomonas aeruginosa PAO1; experiment: Inhibition of beta-lactamase activity in Pseudomonas aeruginosa PAO1 assessed as MIC for cefpodoxime antibacterial activity at 4 mg/L by broth microdilution method
[21] = test system: Pseudomonas aeruginosa PAO1; experiment: Inhibition of beta-lactamase activity in Pseudomonas aeruginosa PAO1 17/14-017 (ST-235) assessed as MIC for cefpodoxime antibacterial activity at 16 mg/L by broth microdilution method
[22] = test system: Pseudomonas aeruginosa PAO1; experiment: Inhibition of beta-lactamase activity in Pseudomonas aeruginosa PAO1 deltaC+pUCP-(PDC-1) assessed as MIC for cefpodoxime antibacterial activity at 16 mg/L by broth microdilution method
[23] = test system: Pseudomonas aeruginosa PAO1; experiment: Inhibition of beta-lactamase activity in Pseudomonas aeruginosa PAO1 deltadacBdeltapbpGdeltadacC assessed as MIC for cefpodoxime antibacterial activity at 4 mg/L by broth microdilution method
[24] = test system: Pseudomonas aeruginosa PAO1; experiment: Inhibition of beta-lactamase activity in Pseudomonas aeruginosa PAO1 deltaC assessed as MIC for cefpodoxime antibacterial activity at 4 mg/L by broth microdilution method
[25] = test system: Pseudomonas aeruginosa PAO1; experiment: Inhibition of beta-lactamase activity in Pseudomonas aeruginosa PAO1 6/04-224 (ST-175) assessed as MIC for cefpodoxime antibacterial activity at 16 mg/L by broth microdilution method
[26] = test system: Pseudomonas aeruginosa PAO1; experiment: Inhibition of beta-lactamase activity in Pseudomonas aeruginosa PAO1 deltaC assessed as MIC for cefpodoxime antibacterial activity at 16 mg/L by broth microdilution method
[27] = test system: Pseudomonas aeruginosa PAO1; experiment: Inhibition beta lactamase PDC-1 in Pseudomonas aeruginosa PAO1 assessed as deacylation off-rate using nitrocefin as substrate at 30 mins measured by 96 well microtitre plate
[28] = test system: Pseudomonas aeruginosa PAO1; experiment: Inhibition of beta-lactamase activity in Pseudomonas aeruginosa PAO1 13/09-018 (ST-175) assessed as MIC for cefpodoxime antibacterial activity at 16 mg/L by broth microdilution method
[29] = test system: Pseudomonas aeruginosa PAO1; experiment: Inhibition of beta-lactamase activity in Pseudomonas aeruginosa PAO1 deltadacBdeltapbpGdeltadacC assessed as MIC for cefpodoxime antibacterial activity at 16 mg/L by broth microdilution method
[30] = test system: Pseudomonas aeruginosa PAO1; experiment: Inhibition of beta-lactamase activity in Pseudomonas aeruginosa PAO1 deltaDdeltsDh2deltaDh3 assessed as MIC for cefpodoxime antibacterial activity at 16 mg/L by broth microdilution method
[31] = test system: Pseudomonas aeruginosa PAO1; experiment: Inhibition of beta-lactamase activity in Pseudomonas aeruginosa PAO1 53/22-113 (ST-244) assessed as MIC for cefpodoxime antibacterial activity at 16 mg/L by broth microdilution method
[32] = test system: Pseudomonas aeruginosa PAO1; experiment: Inhibition of beta-lactamase activity in Pseudomonas aeruginosa PAO1 23/14-053 (ST-309) assessed as MIC for cefpodoxime antibacterial activity at 16 mg/L by broth microdilution method
[33] = test system: Pseudomonas aeruginosa PAO1; experiment: Inhibition of beta-lactamase activity in Pseudomonas aeruginosa PAO1 deltaDdeltsDh2deltaDh3 assessed as MIC for cefpodoxime antibacterial activity at 4 mg/L by broth microdilution method
[34] = test system: Pseudomonas aeruginosa; experiment: Inhibition of beta lactamase PDC-1 in Pseudomonas aeruginosa PAO1 for 30 min using MALDI TOF-MS analysis
[35] = test system: Pseudomonas aeruginosa PAO1; experiment: Inhibition of beta-lactamase activity in Pseudomonas aeruginosa PAO1 6/04-224 (ST-175) assessed as MIC for cefpodoxime antibacterial activity at 4 mg/L by broth microdilution method
[36] = test system: Pseudomonas aeruginosa PAO1; experiment: Inhibition beta lactamase PDC-1 in Pseudomonas aeruginosa PAO1 assessed as inactivation efficiency by measuring acylation rate (k2/K) using nitrocefin as substrate measured by 96 well microtitre plate
[37] = test system: Pseudomonas aeruginosa PAO1; experiment: Inhibition of beta-lactamase activity in Pseudomonas aeruginosa PAO1 deltadacBdeltadacC assessed as MIC for cefpodoxime antibacterial activity at 16 mg/L by broth microdilution method
[38] = test system: Pseudomonas aeruginosa PAO1; experiment: Inhibition beta lactamase PDC-1 in Pseudomonas aeruginosa PAO1 assessed half life of nitrocefin substrate measured by 96 well microtitre plate assay
[39] = test system: Pseudomonas aeruginosa PAO1; experiment: Inhibition of beta-lactamase activity in Pseudomonas aeruginosa PAO1 deltaC+pUCP-(PDC-5) assessed as MIC for cefpodoxime antibacterial activity at 4 mg/L by broth microdilution method
[40] = test system: Pseudomonas aeruginosa PAO1; experiment: Inhibition of beta-lactamase activity in Pseudomonas aeruginosa PAO1 23/14-053 (ST-309) assessed as MIC for cefpodoxime antibacterial activity at 4 mg/L by broth microdilution method
[41] = test system: Pseudomonas aeruginosa PAO1; experiment: Inhibition of beta lactamase PDC-1 in Pseudomonas aeruginosa PAO1 assessed as reduction in enzyme activity using nitrocefin as chromogenic substrate preincubated for 10 min using 96 well microtiter plate
[42] = test system: Pseudomonas aeruginosa PAO1; experiment: Inhibition of beta-lactamase activity in Pseudomonas aeruginosa PAO1 PAHUAC-14 (ST-966) assessed as MIC for cefpodoxime antibacterial activity at 16 mg/L by broth microdilution method
[43] = test system: Pseudomonas aeruginosa PAO1; experiment: Inhibition of beta-lactamase activity in Pseudomonas aeruginosa PAO1 17/14-017 (ST-235) assessed as MIC for cefpodoxime antibacterial activity at 4 mg/L by broth microdilution method
[44] = test system: Pseudomonas aeruginosa PAO1; experiment: Inhibition beta lactamase PDC-1 in Pseudomonas aeruginosa PAO1 assessed as ratio of kinact/K1 using nitrocefin as substrate measured by 96 well microtitre plate
[45] = test system: Pseudomonas aeruginosa PAO1; experiment: Inhibition of beta-lactamase activity in Pseudomonas aeruginosa PAO1 deltaC+pUCP-(PDC-5) assessed as MIC for cefpodoxime antibacterial activity at 16 mg/L by broth microdilution method

SMILES: C[C@]1(COC(=O)Cc2ccc(O)c(O)c2)[C@H](C(=O)O)N2C(=O)/C(=C/c3ccc(F)cn3)[C@H]2S1(=O)=O
- Kinact [1]: 0.013 s⁻¹
- MIC [2]: 1 µg/mL (≈ 1.97 µM)
- MIC [3]: 2 µg/mL (≈ 3.95 µM)
- MIC [4]: 2 µg/mL (≈ 3.95 µM)
- MIC [5]: 4 µg/mL (≈ 7.9 µM)
- MIC [6]: 2 µg/mL (≈ 3.95 µM)
- MIC [7]: 1 µg/mL (≈ 1.97 µM)
- MIC [8]: 8 µg/mL (≈ 15.8 µM)
- MIC [9]: 8 µg/mL (≈ 15.8 µM)
- MIC [10]: 2 µg/mL (≈ 3.95 µM)
- MIC [11]: 8 µg/mL (≈ 15.8 µM)
- MIC [12]: 8 µg/mL (≈ 15.8 µM)
- Ki [13]: 110 nM
- IC50 [14]: 6.3 nM
- MIC [15]: 0.5 µg/mL (≈ 0.987 µM)
- MIC [16]: 8 µg/mL (≈ 15.8 µM)
- MIC [17]: 1 µg/mL (≈ 1.97 µM)
- MIC [18]: 1 µg/mL (≈ 1.97 µM)
- MIC [19]: 16 µg/mL (≈ 31.6 µM)
- MIC [20]: 1 µg/mL (≈ 1.97 µM)
- MIC [21]: 4 µg/mL (≈ 7.9 µM)
- MIC [22]: 1 µg/mL (≈ 1.97 µM)
- MIC [23]: 1 µg/mL (≈ 1.97 µM)
- MIC [24]: 1 µg/mL (≈ 1.97 µM)
- MIC [25]: 8 µg/mL (≈ 15.8 µM)
- MIC [26]: 1 µg/mL (≈ 1.97 µM)
- K [27]: 9 10^-2/min
- MIC [28]: 8 µg/mL (≈ 15.8 µM)
- MIC [29]: 0.5 µg/mL (≈ 0.987 µM)
- MIC [30]: 1 µg/mL (≈ 1.97 µM)
- MIC [31]: 4 µg/mL (≈ 7.9 µM)
- MIC [32]: 2 µg/mL (≈ 3.95 µM)
- MIC [33]: 8 µg/mL (≈ 15.8 µM)
- inhibition [34]: inactive
- MIC [35]: 8 µg/mL (≈ 15.8 µM)
- k2/K inactivation efficiency [36]: 6.8 M⁻¹ s⁻¹
- MIC [37]: 0.5 µg/mL (≈ 0.987 µM)
- T1/2 [38]: 78 min
- MIC [39]: 2 µg/mL (≈ 3.95 µM)
- MIC [40]: 2 µg/mL (≈ 3.95 µM)
- inhibition [41]: inactive
- MIC [42]: 2 µg/mL (≈ 3.95 µM)
- MIC [43]: 4 µg/mL (≈ 7.9 µM)
- K [44]: 5 10^5/M/s
- MIC [45]: 2 µg/mL (≈ 3.95 µM)

SMILES: NC(=O)[C@@H]1CC[C@@H]2CN1C(=O)N2OS(=O)(=O)O [AVIBACTAM SODIUM]
- MIC [2]: 1 µg/mL
- MIC [3]: 2 µg/mL
- MIC [4]: 1 µg/mL
- MIC [5]: 1 µg/mL
- MIC [6]: 1 µg/mL
- MIC [7]: 1 µg/mL
- MIC [8]: 4 µg/mL
- MIC [9]: 4 µg/mL
- MIC [10]: 1 µg/mL
- MIC [11]: 4 µg/mL
- MIC [12]: 1 µg/mL
- Ki [13]: 990 nM
- IC50 [14]: 51 nM
- MIC [15]: 0.5 µg/mL
- MIC [16]: 4 µg/mL
- MIC [17]: 0.5 µg/mL
- MIC [18]: 1 µg/mL
- MIC [19]: 8 µg/mL
- MIC [20]: 1 µg/mL
- MIC [21]: 4 µg/mL
- MIC [22]: 1 µg/mL
- MIC [23]: 1 µg/mL
- MIC [24]: 1 µg/mL
- MIC [25]: 8 µg/mL
- MIC [26]: 1 µg/mL
- K [27]: 2.6 10^-2/min
- MIC [28]: 8 µg/mL
- MIC [29]: 0.5 µg/mL
- MIC [30]: 1 µg/mL
- MIC [31]: 4 µg/mL
- MIC [32]: 1 µg/mL
- MIC [33]: 2 µg/mL
- MIC [35]: 8 µg/mL
- k2/K inactivation efficiency [36]: 1370 M⁻¹ s⁻¹
- MIC [37]: 0.5 µg/mL
- T1/2 [38]: 28 min
- MIC [39]: 2 µg/mL
- MIC [40]: 1 µg/mL
- MIC [42]: 2 µg/mL
- MIC [43]: 4 µg/mL
- MIC [45]: 1 µg/mL

SMILES: C[C@]1(Cn2ccnn2)[C@H](C(=O)O)N2C(=O)C[C@H]2S1(=O)=O [TAZOBACTAM]
- IC50 [14]: 844 nM
